# Target: T1, human GPR119 (hGPR119) (Homo sapiens, UniProt Q8TDV5)
# T1 construct: expressed in transfected cells
# T1 sequence (Q8TDV5 1-335): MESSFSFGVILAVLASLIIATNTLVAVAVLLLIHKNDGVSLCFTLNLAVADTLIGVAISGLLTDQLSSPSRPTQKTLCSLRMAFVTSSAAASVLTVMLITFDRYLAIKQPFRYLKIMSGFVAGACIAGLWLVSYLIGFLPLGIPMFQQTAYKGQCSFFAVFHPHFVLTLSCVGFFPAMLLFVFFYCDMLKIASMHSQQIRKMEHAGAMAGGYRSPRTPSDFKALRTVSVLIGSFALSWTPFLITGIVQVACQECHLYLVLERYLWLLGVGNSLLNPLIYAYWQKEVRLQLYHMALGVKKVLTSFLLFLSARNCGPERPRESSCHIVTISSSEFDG
# Experiment: cAMP accumulation assay (cAMP Gs dynamic HTRF kit)
# Assay type: cell-based
# Conditions: CHO-K1 cells stably expressing hGPR119, 4-parameter fit; for Emax: 1 h, % activity normalized to Max/Min controls; for EC50: cAMP accumulation
# In short: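 Read-out is HTRF 665/620 nm ratio after 1 h detection at ambient temperature, converted to % activity against positive and negative controls, EC50 and Max activity by 4-parameter fit. Compounds were titrated onto ~10,000 thawed hGPR119-CHO-K1 cells/well for 60 min at 37° C/5% CO2.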
Compound,Emax [%],EC50 [nM]
"COCc1cnc(N2CCC(CCCOc3cc(F)c(CC(=O)N4CC[C@@H](CNCC(O)(CO)CO)C4)c(F)c3)CC2)nc1 [Example 159, 2-[2,6-difluoro-4-[3-[1-[5-(methoxymethyl)pyrimidin-2-yl]-4-piperidyl]propoxy]phenyl]-1-[(3S)-3-[[[2,3-dihydroxy-2-(hydroxymethyl)propyl]amino]methyl]pyrrolidin-1-yl]ethanone]",100 to 130,≤ 100
"COCc1cnc(N2CCC(CCCOc3cc(F)c(CC(=O)N4CC[C@@H](CNCC(CO)(CO)CO)C4)c(F)c3)CC2)nc1 [Example 160, 2-[2,6-difluoro-4-[3-[1-[5-(methoxymethyl)pyrimidin-2-yl]-4-piperidyl]propoxy]phenyl]-1-[(3S)-3-[[[3-hydroxy-2,2-bis(hydroxymethyl)propyl]amino]methyl]pyrrolidin-1-yl]ethanone]",≥ 130,≤ 100
"COCc1cnc(N2CCC([C@H]3C[C@H]3CCOc3ccc(CC(=O)N4CC[C@@H](CNCC(O)(CO)CO)C4)c(F)c3)CC2)nc1 [Example 162, 2-[2-fluoro-4-[2-[(1S,2R)-2-[1-[5-(methoxymethyl)pyrimidin-2-yl]-4-piperidyl]cyclopropyl]ethoxy]phenyl]-1-[(3S)-3-[[[2,3-dihydroxy-2-(hydroxymethyl)propyl]amino]methyl]pyrrolidin-1-yl]ethanone]",100 to 130,≤ 100
"COCc1cnc(N2CCC([C@H]3C[C@H]3CCOc3ccc(CC(=O)N4CC[C@@H](CNCC(CO)(CO)CO)C4)c(F)c3)CC2)nc1 [Example 163, 2-[2-fluoro-4-[2-[(1S,2R)-2-[1-[5-(methoxymethyl)pyrimidin-2-yl]-4-piperidyl]cyclopropyl]ethoxy]phenyl]-1-[(3S)-3-[[[3-hydroxy-2,2-bis(hydroxymethyl)propyl]amino]methyl]pyrrolidin-1-yl]ethanone]",100 to 130,≤ 100
"O=C(Cc1ccc(OCCCC2CCN(c3ncc(Cl)cn3)CC2)cc1F)N1CC(CCNC[C@H](O)[C@H](O)[C@H](O)CO)C1 [Example 164, 2-[4-[3-[1-(5-chloropyrimidin-2-yl)-4-piperidyl]propoxy]-2-fluoro-phenyl]-1-[3-[2-[[(2S,3S,4R)-2,3,4,5-tetrahydroxypentyl]amino]ethyl]azetidin-1-yl]ethanone]",100 to 130,≤ 100
"O=C(Cc1ccc(OCCCC2CCN(c3ncc(Cl)cn3)CC2)cc1F)N1CC(CNC[C@H](O)[C@H](O)[C@H](O)CO)C1 [Example 165, 2-[4-[3-[1-(5-chloropyrimidin-2-yl)-4-piperidyl]propoxy]-2-fluoro-phenyl]-1-[3-[[[(2S,3S,4R)-2,3,4,5-tetrahydroxypentyl]amino]methyl]azetidin-1-yl]ethanone]",100 to 130,≤ 100
"O=C(Cc1ccc(OCCCC2CCN(c3ncc(Cl)cn3)CC2)cc1F)N1CC(CNC[C@H](O)[C@@H](O)[C@H](O)CO)C1 [Example 166, 2-[4-[3-[1-(5-chloropyrimidin-2-yl)-4-piperidyl]propoxy]-2-fluoro-phenyl]-1-[3-[[[(2S,3R,4R)-2,3,4,5-tetrahydroxypentyl]amino]methyl]azetidin-1-yl]ethanone]",100 to 130,≤ 100
"O=C(Cc1ccc(OCCCC2CCN(c3ncc(Cl)cn3)CC2)cc1F)N1CC(CNC[C@@H](O)[C@H](O)[C@H](O)CO)C1 [Example 167, 2-[4-[3-[1-(5-chloropyrimidin-2-yl)-4-piperidyl]propoxy]-2-fluoro-phenyl]-1-[3-[[[(2R,38,4R)-2,3,4,5-tetrahydroxypentyl]amino]methyl]azetidin-1-yl]ethanone]",100 to 130,≤ 100
"O=C(Cc1ccc(OCCCC2CCN(c3ncc(Cl)cn3)CC2)cc1F)N1CC[C@H](CNC[C@H](O)[C@H](O)[C@H](O)CO)C1 [Example 168, 2-[4-[3-[1-(5-chloropyrimidin-2-yl)-4-piperidyl]propoxy]-2-fluoro-phenyl]-1-[(3R)-3-[[[(2S,3S,4R)-2,3,4,5-tetrahydroxypentyl]amino]methyl]pyrrolidin-1-yl]ethanone]",100 to 130,≤ 100
"O=C(Cc1ccc(OCCCC2CCN(c3ncc(Cl)cn3)CC2)cn1)N1CC(CNC[C@H](O)[C@@H](O)[C@H](O)[C@H](O)CO)C1 [Example 169, 2-[5-[3-[1-(5-chloropyrimidin-2-yl)-4-piperidyl]propoxy]-2-pyridyl]-1-[3-[[[(2S,3R,4R,5R)-2,3,4,5,6-pentahydroxyhexyl]amino]methyl]azetidin-1-yl]ethanone]",100 to 130,1000 to 10000
"O=C(Cc1ncc(OCCCC2CCN(c3ncc(Cl)cn3)CC2)cc1F)N1CC(CNC[C@H](O)[C@@H](O)[C@H](O)[C@H](O)CO)C1 [Example 170, 2-[5-[3-[1-(5-chloropyrimidin-2-yl)-4-piperidyl]propoxy]-3-fluoro-2-pyridyl]-1-[3-[[[(2S,3R,4R,5R)-2,3,4,5,6-pentahydroxyhexyl]amino]methyl]azetidin-1-yl]ethanone]",100 to 130,100 to 1000
"O=C(NCCS(=O)(=O)O)C1CN(C(=O)Cc2ccc(OCCCC3CCN(c4ncc(Cl)cn4)CC3)cc2F)C1 [Example 171, 2-[[1-[2-[4-[3-[1-(5-chloropyrimidin-2-yl)-4-piperidyl]propoxy]-2-fluoro-phenyl]acetyl]azetidine-3-carbonyl]amino]ethanesulfonic acid]",100 to 130,100 to 1000
"O=C(NCCCS(=O)(=O)O)C1CN(C(=O)Cc2ccc(OCCCC3CCN(c4ncc(Cl)cn4)CC3)cc2F)C1 [Example 172, 3-[[1-[2-[4-[3-[1-(5-chloropyrimidin-2-yl)-4-piperidyl]propoxy]-2-fluoro-phenyl]acetyl]azetidine-3-carbonyl]amino]propane-1-sulfonic acid]",100 to 130,≤ 100
"O=C(NCCCCS(=O)(=O)O)C1CN(C(=O)Cc2ccc(OCCCC3CCN(c4ncc(Cl)cn4)CC3)cc2F)C1 [Example 173, 4-[[1-[2-[4-[3-[1-(5-chloropyrimidin-2-yl)-4-piperidyl]propoxy]-2-fluoro-phenyl]acetyl]azetidine-3-carbonyl]amino] butane-1-sulfonic acid]",100 to 130,
"O=C(NCCCCCS(=O)(=O)O)C1CN(C(=O)Cc2ccc(OCCCC3CCN(c4ncc(Cl)cn4)CC3)cc2F)C1 [Example 174, 5-[[1-[2-[4-[3-[1-(5-chloropyrimidin-2-yl)-4-piperidyl]propoxy]-2-fluoro-phenyl]acetyl]azetidine-3-carbonyl]amino]pentane-1-sulfonic acid]",100 to 130,100 to 1000
"O=C(NCCCCCCS(=O)(=O)O)C1CN(C(=O)Cc2ccc(OCCCC3CCN(c4ncc(Cl)cn4)CC3)cc2F)C1 [Example 175, 6-[[1-[2-[4-[3-[1-(5-chloropyrimidin-2-yl)-4-piperidyl]propoxy]-2-fluoro-phenyl]acetyl]azetidine-3-carbonyl]amino]hexane-1-sulfonic acid]",100 to 130,100 to 1000
"O=C(CC1CN(C(=O)Cc2ccc(OCCCC3CCN(c4ncc(Cl)cn4)CC3)cc2F)C1)NCCS(=O)(=O)O [Example 176, 2-[[2-[1-[2-[4-[3-[1-(5-chloropyrimidin-2-yl)-4-piperidyl]propoxy]-2-fluoro-phenyl]acetyl]azetidin-3-yl]acetyl]amino]ethanesulfonic acid]",100 to 130,100 to 1000
"O=C(CC1CN(C(=O)Cc2ccc(OCCCC3CCN(c4ncc(Cl)cn4)CC3)cc2F)C1)NCCCS(=O)(=O)O [Example 177, 3-[[2-[1-[2-[4-[3-[1-(5-chloropyrimidin-2-yl)-4-piperidyl]propoxy]-2-fluoro-phenyl]acetyl]azetidin-3-yl]acetyl]amino]propane-1-sulfonic acid]",100 to 130,100 to 1000
"O=C(CC1CN(C(=O)Cc2ccc(OCCCC3CCN(c4ncc(Cl)cn4)CC3)cc2F)C1)NCCCCS(=O)(=O)O [Example 178, 4-[[2-[1-[2-[4-[3-[1-(5-chloropyrimidin-2-yl)-4-piperidyl]propoxy]-2-fluoro-phenyl]acetyl]azetidin-3-yl]acetyl]amino]butane-1-sulfonic acid]",100 to 130,100 to 1000
"O=C(Cc1ccc(OCCCC2CCN(c3ncc(Cl)cn3)CC2)nc1)N1CC(CNC[C@H](O)[C@@H](O)[C@H](O)[C@H](O)CO)C1 [Example 179, 2-[6-[3-[1-(5-chloropyrimidin-2-yl)-4-piperidyl]propoxy]-3-pyridyl]-1-[3-[[[(2S,3R,4R,5R)-2,3,4,5,6-pentahydroxyhexyl]amino]methyl]azetidin-1-yl]ethanone]",100 to 130,1000 to 10000
"O=C(Cc1ccc(OCCCC2CCN(c3ncc(Cl)cn3)CC2)cc1F)N1CCC(O)(CNCC(CO)(CO)CO)C1 (stereo not shown) [Example 180, 2-[4-[3-[1-(5-chloropyrimidin-2-yl)-4-piperidyl]propoxy]-2-fluoro-phenyl]-1-[3-hydroxy-3-[[[3-hydroxy-2,2-bis(hydroxymethyl)propyl]amino]methyl]pyrrolidin-1-yl]ethanone]",100 to 130,≤ 100
"O=C(Cc1ccc(OCCCC2CCN(c3ncc(Cl)cn3)CC2)cc1F)N1CCC(O)(C(=O)NC[C@H](O)[C@@H](O)[C@H](O)[C@H](O)CO)C1 (stereo partly drawn) [Example 181, 1-[2-[4-[3-[1-(5-chloropyrimidin-2-yl)-4-piperidyl]propoxy]-2-fluoro-phenyl]acetyl]-3-hydroxy-N-[(2S,3R,4R,5R)-2,3,4,5,6-pentahydroxyhexyl]pyrrolidine-3-carboxamide]",100 to 130,≤ 100
